According to US8680269B2, “Pesticidal compositions” (Dow AgroSciences, LLC., priority 2009, dated 2014):

Columns and labels:
[1] = system: corn earworm (CEW; Helicoverpa zea); experiment: Insecticidal test for corn earworm, 128-well diet tray assay; assay type: in vivo; settings: 144 h, 50 μg/cm2 on artificial diet, second instar larvae, six days at 25° C.
Method: (§1) Bioassays on corn earworm (CEW; Helicoverpa zea: Lepidoptera) were conducted using a 128-well diet tray assay. Three to five second instar CEW larvae were placed in each well (3 mL) of the diet tray that had been previously filled with 1 mL of artificial diet to which 50 μg/cm^2 of the test compound (dissolved in 50 μL of 90:10 acetone-water mixture) had been applied (to each of eight wells) and then allowed to dry. Trays were covered with a clear self-adhesive cover, and held at 25° C., 14:10 light-dark for six days. Percent mortality was recorded for the larvae in each well; activity in the eight wells was then averaged.

[2] = system: beet armyworm (BAW; Spodoptera exigua); experiment: Insecticidal test for beet armyworm, 128-well diet tray assay; assay type: in vivo; settings: 144 h, 50 μg/cm2 on artificial diet, second instar larvae, six days at 25° C.
Method: as §1, with “beet armyworm (BAW; Spodoptera exigua:” for “corn earworm (CEW; Helicoverpa zea:”, “BAW” for “CEW”

SMILES	mortality at 50 µg/cm2 [1]	mortality at 50 µg/cm2 [2]
FC(F)(F)Oc1ccc(-n2ccc(-c3ccc(/C=N/NC(=S)Nc4c(Cl)cccc4Cl)cc3)n2)cc1 [Compound 137]	50 to 100%	50 to 100%
Cc1cc(C)c(NC(=S)N/N=C/c2ccc(-c3ncn(-c4ccc(OC(F)(F)F)cc4)n3)cc2)c(Cl)c1 [Compound 104]	50 to 100%	50 to 100%
CC(NC(=S)N/N=C/c1ccc(-c2ncn(-c3ccc(OC(F)(F)F)cc3)n2)cc1)c1ccccc1 (stereo not shown) [Compound 152]	50 to 100%	50 to 100%
CSc1cc(C)c(NC(=S)N/N=C/c2ccc(-c3ncn(-c4ccc(OC(F)(F)F)cc4)n3)cc2)c(C)c1 [Compound 100]	50 to 100%	50 to 100%
COc1cccc(C(C)NC(=S)N/N=C/c2ccc(-c3ncn(-c4ccc(OC(F)(F)F)cc4)n3)cc2)c1 (stereo not shown) [Compound 153]	50 to 100%	50 to 100%
COc1ccc(NC(=S)N(C)/N=C/c2ccc(-c3ncn(-c4ccc(OC(F)(F)F)cc4)n3)cc2)c(C)c1 [Compound 85]	50 to 100%	50 to 100%
Cc1cc(C)c(NC(=O)N/N=C/c2ccc(-c3ncn(-c4ccc(OC(F)(F)F)cc4)n3)cc2)c(C)c1 [Compound 118]	50 to 100%	50 to 100%
Cc1cccc(C)c1NC(=S)N/N=C/c1ccc(-c2ccn(-c3ccc(OC(F)(F)F)cc3)c2)cc1 [Compound 134]	50 to 100%	50 to 100%
Cc1cccc(C)c1NC(=S)N/N=C/c1ccc(-c2cnn(-c3ccc(OC(F)(F)F)cc3)c2)cc1 [Compound 138]	50 to 100%	50 to 100%
FC(F)(F)Oc1ccc(-n2ccc(-c3ccc(/C=N/NC(=S)Nc4c(Cl)cccc4Cl)cc3)c2)cc1 [Compound 135]	50 to 100%	50 to 100%
Cc1ccc(C(C)NC(=S)N/N=C/c2ccc(-c3ncn(-c4ccc(OC(F)(F)F)cc4)n3)cc2)cc1 (stereo not shown) [Compound 144]	50 to 100%	50 to 100%
FC(F)(F)Oc1ccc(-n2cnc(-c3ccc(/C=N/NC(=S)NCc4ccsc4)cc3)n2)cc1 [Compound 154]	50 to 100%	50 to 100%
CCCCc1ccc(-n2cnc(-c3ccc(/C=N/NC(=S)Nc4c(C)cc(OC)cc4C)cc3)n2)cc1 [Compound 124]	50 to 100%	50 to 100%
Cc1ccsc1CNC(=S)N/N=C/c1ccc(-c2ncn(-c3ccc(OC(F)(F)F)cc3)n2)cc1 [Compound 156]	50 to 100%	50 to 100%
CCc1cccc(CC)c1NC(=S)N/N=C(\C)c1ccc(-c2ncn(-c3ccc(OC(F)(F)F)cc3)n2)cc1 [Compound 110]	50 to 100%	50 to 100%
Cc1cc(C)c(NC(=S)N/N=C/c2ccc(-c3ncn(-c4ccc(OC(F)(F)F)cc4)n3)cc2)c(C)n1 [Compound 106]	50 to 100%	50 to 100%
Cc1cc(C)c(NC(=S)N/N=C/c2ccc(-c3ncn(-c4ccc(OC(F)(F)F)cc4)n3)cc2)c(C)c1 [Compound 93]	50 to 100%	50 to 100%
Cc1ccc(NC(=S)N/N=C/c2ccc(-c3ncn(-c4ccc(OC(F)(F)F)cc4)n3)cc2)c(C)c1 [Compound 95]	50 to 100%	50 to 100%
CCN(/N=C/c1ccc(-c2ncn(-c3ccc(OC(F)(F)F)cc3)n2)cc1)C(=S)Nc1ccc(OC)cc1C [Compound 86]	50 to 100%	50 to 100%
FC(F)(F)Oc1ccc(N2CCC(c3ccc(/C=N/NC(=S)Nc4c(Cl)cccc4Cl)cc3)=N2)cc1 [Compound 141]	50 to 100%	50 to 100%
Cc1ccc(NC(=S)N/N=C/c2ccc(-c3ncn(-c4ccc(OC(F)(F)F)cc4)n3)cc2)cc1 [Compound 92]	50 to 100%	50 to 100%
COc1ccc(C)cc1NC(=S)N/N=C/c1ccc(-c2ncn(-c3ccc(OC(F)(F)F)cc3)n2)cc1 [Compound 89]	50 to 100%	50 to 100%
CC(NC(=S)N/N=C/c1ccc(-c2ncn(-c3ccc(OC(F)(F)F)cc3)n2)cc1)c1ccc(Br)cc1 (stereo not shown) [Compound 146]	50 to 100%	50 to 100%
Fc1cccc(Br)c1NC(=S)N/N=C/c1ccc(-c2ncn(-c3ccc(OC(F)(F)F)cc3)n2)cc1 [Compound 105]	50 to 100%	50 to 100%
COc1ccc([C@@H](C)NC(=S)N/N=C/c2ccc(-c3ncn(-c4ccc(OC(F)(F)F)cc4)n3)cc2)cc1 [Compound 142]	50 to 100%	50 to 100%

SMILES	mortality at 50 µg/cm2 [1]	mortality at 50 µg/cm2 [2]
CC(NC(=S)N/N=C/c1ccc(-c2ncn(-c3ccc(OC(F)(F)F)cc3)n2)cc1)c1cccnc1 (stereo not shown) [Compound 158]	50 to 100%	50 to 100%
Fc1cc(F)c(NC(=S)N/N=C/c2ccc(-c3ncn(-c4ccc(OC(F)(F)F)cc4)n3)cc2)c(F)c1 [Compound 98]	50 to 100%	50 to 100%
Cc1ncccc1NC(=S)N/N=C/c1ccc(-c2ncn(-c3ccc(OC(F)(F)F)cc3)n2)cc1 [Compound 99]	50 to 100%	50 to 100%
CC(C)c1cccc(C(C)C)c1NC(=S)N/N=C/c1ccc(-c2ncn(-c3ccc(OC(F)(F)F)cc3)n2)cc1 [Compound 107]	50 to 100%	50 to 100%
COc1cc(C)cc(C)c1NC(=S)N/N=C/c1ccc(-c2ncn(-c3ccc(OC(F)(F)F)cc3)n2)cc1 [Compound 103]	50 to 100%	50 to 100%
FC(F)(F)Oc1ccc(-n2cnc(-c3ccc(/C=N/NC(=S)Nc4c(Br)cccc4Br)cc3)n2)cc1 [Compound 48]	50 to 100%	50 to 100%
FC(F)(F)Oc1ccc(-n2cnc(-c3ccc(/C=N/NC(=S)Nc4ccccc4I)cc3)n2)cc1 [Compound 60]	50 to 100%	50 to 100%
COc1ccc(C(C)NC(=S)N/N=C/c2ccc(-c3ncn(-c4ccc(OC(F)(F)F)cc4)n3)cc2)cc1 (stereo not shown) [Compound 143]	50 to 100%	50 to 100%
CCCc1ccccc1NC(=S)N/N=C/c1ccc(-c2ncn(-c3ccc(OC(F)(F)F)cc3)n2)cc1 [Compound 82]	50 to 100%	50 to 100%
CC(C)(C)c1ccccc1NC(=S)N/N=C/c1ccc(-c2ncn(-c3ccc(OC(F)(F)F)cc3)n2)cc1 [Compound 83]	< 50%	< 50%
Cc1cc(C)c(NC(=S)N/N=C/c2ccc(-c3ncn(-c4ccc(OC(F)(F)C(F)(F)F)cc4)n3)cc2)c(C)c1 [Compound 123]	50 to 100%	50 to 100%
COc1cc(C)c(NC(=S)N/N=C/c2ccc(-c3ncn(-c4ccc(OC(F)(F)F)cc4)n3)cc2)c(C)c1 [Compound 116]	50 to 100%	50 to 100%
COc1ccccc1C(C)NC(=S)N/N=C/c1ccc(-c2ncn(-c3ccc(OC(F)(F)F)cc3)n2)cc1 (stereo not shown) [Compound 148]	50 to 100%	50 to 100%
COc1ccc(NC(=S)N/N=C/c2ccc(-c3ncn(-c4ccc(OC(F)(F)F)cc4)n3)cc2)c(C(C)C)c1 [Compound 121]	50 to 100%	50 to 100%
Cc1cc(F)cc(C)c1NC(=S)N/N=C/c1ccc(-c2ncn(-c3ccc(OC(F)(F)F)cc3)n2)cc1 [Compound 112]	50 to 100%	50 to 100%
Cc1cccc(C)c1NC(=S)N/N=C/c1ccc(C2=NN(c3ccc(OC(F)(F)F)cc3)CC2)cc1 [Compound 140]	50 to 100%	50 to 100%
C=C(C)c1ccccc1NC(=S)N/N=C/c1ccc(-c2ncn(-c3ccc(OC(F)(F)F)cc3)n2)cc1 [Compound 91]	50 to 100%	50 to 100%
Cc1ccccc1C(C)NC(=S)N/N=C/c1ccc(-c2ncn(-c3ccc(OC(F)(F)F)cc3)n2)cc1 (stereo not shown) [Compound 147]	50 to 100%	50 to 100%
Cc1cccc(C)c1NC(=S)N/N=C/c1ccc(-c2ccn(-c3ccc(OC(F)(F)F)cc3)n2)cc1 [Compound 136]	50 to 100%	50 to 100%
COc1ccc(C(C)NC(=S)N/N=C/c2ccc(-c3ncn(-c4ccc(OC(F)(F)F)cc4)n3)cc2)cc1C (stereo not shown) [Compound 149]	50 to 100%	50 to 100%
COc1cccc(NC(=S)N/N=C/c2ccc(-c3ncn(-c4ccc(OC(F)(F)F)cc4)n3)cc2)c1C [Compound 90]	50 to 100%	50 to 100%
C/C(=N\NC(=S)Nc1c(C)cccc1C)c1ccc(-c2cnn(-c3ccc(OC(F)(F)F)cc3)c2)cc1 [Compound 139]	50 to 100%	50 to 100%
COc1cc(OC)c(NC(=S)N/N=C/c2ccc(-c3ncn(-c4ccc(OC(F)(F)F)cc4)n3)cc2)c(OC)c1 [Compound 88]	50 to 100%	50 to 100%
COc1cccc(NC(=S)N/N=C/c2ccc(-c3ncn(-c4ccc(OC(F)(F)F)cc4)n3)cc2)c1 [Compound 94]	50 to 100%	50 to 100%
CCc1cc(OC)ccc1NC(=S)N/N=C/c1ccc(-c2ncn(-c3ccc(OC(F)(F)F)cc3)n2)cc1 [Compound 111]	50 to 100%	50 to 100%
